Assay results reported in patent US7138389B2, “Oral androgen therapy using modulators of testosterone bioavailability” (University of Washington, priority 2004, dated 2006).
Read-outs that look alike come from different tables or passages of the source. Marks after values point to notes of the source that are not given here. Where a SMILES comes first, the peptide text is derived from it. [ ]: non-standard residue; d: D form. dPhe(4-NH2) = Nc1ccc(C[C@@H](N)C(=O)O)cc1; dPhe(4-Cl) = N[C@H](Cc1ccc(Cl)cc1)C(=O)O; Phe(4-NH2) = Nc1ccc(C[C@H](N)C(=O)O)cc1; d2Nal = N[C@H](Cc1ccc2ccccc2c1)C(=O)O; Lys(iPr) = CC(C)NCCCC[C@H](N)C(=O)O; d3Pal = N[C@H](Cc1cccnc1)C(=O)O

Key:
[1] = Serum DHT pharmacokinetics after single oral doses of testosterone or testosterone enanthate in oil with and without dutasteride (Example 2); conditions: 200, 400, 800 mg; all men
Experimental: Study Design: Participants were randomly assigned to one of two groups: 1) oral testosterone in sesame oil, or 2) oral testosterone enanthate in sesame oil (Delatestryl, BTG Pharmaceuticals, Iselin, N.J.) at a concentration of 200 mg/ml. A sample size of seven subjects per group was estimated to have an 80% power with an α of 0.05 to detect a 50% in the change in serum testosterone area-under-the curve between doses. The oral testosterone enanthate in sesame oil was manufactured by the compounding pharmacy at the University of Washington. Briefly, micronized testosterone (U.S.P. grade, Spectrum Quality Projects, Gardena, Calif., USA) was suspended at 100 mg/ml in sesame oil (N.F. grade, Spectrum Quality Projects, Gardena, Calif., USA), and mixed thoroughly on a magnetic stir plate to create a homogenous testosterone enanthate/sesame oil emulsion. […]
Total serum testosterone was measured by a radioimmunoassay (Diagnostic Products Corporation, Los Angeles, Calif.). […] The normal range was 8.7–33 nmol/L. DHT was measured using an RIA Kit (Diagnostic Systems Laboratory, Los Angeles, Calif.). […] The normal range was 3.2–47 nmol/L. The normal ranges for testosterone, DHT and SHBG were determined in our laboratory using serum samples obtained from 100 normal men aged 20–50 years.
Statistics: Hormone were log transformed prior to analysis. […] Changes between groups were analyzed by ANOVA. […]

[2] = Serum testosterone pharmacokinetics after single oral doses of testosterone or testosterone enanthate in oil with and without dutasteride (Example 2); conditions: for maximum concentration of testosterone versus normal range: normal range 8.7–33 nmol/L; for serum testosterone after oral administration in oil: 200, 400, 800 mg, all men; for Testosterone AUC (area under-the-curve): serum testosterone, mean ± SD
Experimental: Study Design: Participants were randomly assigned to one of two groups: 1) oral testosterone in sesame oil, or 2) oral testosterone enanthate in sesame oil (Delatestryl, BTG Pharmaceuticals, Iselin, N.J.) at a concentration of 200 mg/ml. A sample size of seven subjects per group was estimated to have an 80% power with an α of 0.05 to detect a 50% in the change in serum testosterone area-under-the curve between doses. The oral testosterone enanthate in sesame oil was manufactured by the compounding pharmacy at the University of Washington. Briefly, micronized testosterone (U.S.P. grade, Spectrum Quality Projects, Gardena, Calif., USA) was suspended at 100 mg/ml in sesame oil (N.F. grade, Spectrum Quality Projects, Gardena, Calif., USA), and mixed thoroughly on a magnetic stir plate to create a homogenous testosterone enanthate/sesame oil emulsion. The compounding pharmacist then drew up the emulsion into syringes at the desired dose levels (200, 400 and 800 mg). The dose of oral testosterone enanthate in sesame oil was normalized for the testosterone content, so that the subjects in the testosterone enanthate group (molecular weight 397) were administered 276, 554 and 1108 mg of testosterone enanthate, corresponding to 200, 400 and 800 mg of testosterone.
(§1) The drug exposure period lasted 12 days (FIG. 6). […] One, two and three days after acyline administration, as per the protocol of FIG. 6, subjects drank 200, 400 or 800 mg of testosterone or testosterone enthanate in oil, mixed with 8 oz of whole milk. These doses were repeated days eight, nine and ten days after the acyline injection. […] For safety, subjects underwent daily testing of liver function (AST, bilirubin, alkaline phosphatase), kidney function (BUN, creatinine) and hematopoiesis (hemoglobin and hematocrit).
(§2) Total serum testosterone was measured by a radioimmunoassay (Diagnostic Products Corporation, Los Angeles, Calif.). […] The normal range was 8.7–33 nmol/L. DHT was measured using an RIA Kit (Diagnostic Systems Laboratory, Los Angeles, Calif.). The sensitivity of this assay was 0.043 nmol/L and the intra-assay variation for mid and low-range pools was 9.9% and 11%, with interassay coefficients of variations of 19 and 25%. […] The normal range was 3.2–47 nmol/L. The normal ranges for testosterone, DHT and SHBG were determined in our laboratory using serum samples obtained from 100 normal men aged 20–50 years.
Statistics: Hormone were log transformed prior to analysis. […] Changes between groups were analyzed by ANOVA. Statistical analyses were performed using STATA ([…], Tex., USA). Type I error was set at 0.05 for all analyses.

[3] = cited from earlier work
[4] = tested on: serum proteins (SHBG, albumin); conditions: cited from earlier work
[5] = in vivo; cited from earlier work
[6] = tested on: endogenous testosterone production; conditions: cited from earlier work
[7] = tested on: endogenous testosterone production; experiment: Suppression of endogenous testosterone production by GnRH antagonist acyline; type: in vivo, human
Experimental: as §1, §2

[8] = parameters: species or system human; conditions: in vivo
From the text: The drug exposure period lasted 12 days (FIG. 6).

[9] = men receiving testosterone by intramuscular administration; cited from earlier work
5-α-reductase = conditions: cited from earlier work

CCCCCCC(=O)O[C@H]1CC[C@H]2[C@@H]3CCC4=CC(=O)CC[C@]4(C)[C@H]3CC[C@]12C [Testosterone Enanthate-only, testosterone enanthate]
serum DHT after oral administration in oil [1]: significantly increased the serum DHT in all men in a dose-dependent fashion | maximum concentration of testosterone versus normal range ([2]; 400 mg oral dose in oil): exceeding the normal range | maximum concentration of testosterone versus normal range ([2]; 800 mg oral dose in oil): exceeding the normal range | serum testosterone after oral administration in oil [2]: significantly increased in all men in a dose-dependent fashion

CCCCCCCCCCC(=O)O[C@H]1CC[C@H]2[C@@H]3CCC4=CC(=O)CC[C@]4(C)[C@H]3CC[C@]12C [Testosterone undecanoate]
effect of food intake on absorption ([3]; oral (Bagchus et al.)): dramatically improved | serum DHT on oral TU therapy ([3]; oral): well above the normal range | serum testosterone on oral TU therapy ([3]; oral): therapeutic increases

C[C@]12CC[C@H]3[C@@H](CCC4=CC(=O)CC[C@@]43C)[C@@H]1CC[C@@H]2O [Testosterone-only, testosterone]
blood testosterone bound to serum proteins [4]: About 98% | circulating plasma testosterone bound to sex hormone-binding globulin (SHBG) [4]: Approximately 40% | circulating plasma testosterone unbound (free) ([4]; plasma): 2% | serum DHT after oral administration in oil [1]: significantly increased the serum DHT in all men in a dose-dependent fashion | effect on serum testosterone levels ([3]; 200 mg doses of oral testosterone, for up to eight hours): elevate serum testosterone levels to the low normal range | effect on serum testosterone levels ([3]; oral unmodified testosterone at doses up to 100 mg, deficient men): little effect | half-life of testosterone, reported values [5]: 10 to 100 min | maximum concentration of testosterone versus normal range ([2]; 800 mg oral dose in oil): exceeding the normal range | serum testosterone after oral administration in oil [2]: significantly increased in all men in a dose-dependent fashion | Testosterone AUC (area under-the-curve) ([2]; single oral dose 200 mg in oil): 124 ± 28 nmol·h/L | Testosterone AUC (area under-the-curve) ([2]; single oral dose 200 mg in oil, listed as testosterone-alone): 124 ± 28 nmol·h/L | Testosterone AUC (area under-the-curve) ([2]; single oral dose 400 mg in oil): 208 ± 74^a nmol-hours/L | Testosterone AUC (area under-the-curve) ([2]; single oral dose 400 mg in oil, listed as testosterone-alone): 208 ± 74 nmol·h/L | Testosterone AUC (area under-the-curve) ([2]; single oral dose 800 mg in oil): 328 ± 72^a nmol-hours/L | Testosterone AUC (area under-the-curve) ([2]; single oral dose 800 mg in oil, listed as testosterone-alone): 328 ± 82 nmol·h/L

CC(=O)Nc1ccc(C[C@H](NC(=O)[C@H](CO)NC(=O)[C@@H](Cc2cccnc2)NC(=O)[C@@H](Cc2ccc(Cl)cc2)NC(=O)[C@@H](Cc2ccc3ccccc3c2)NC(C)=O)C(=O)N[C@H](Cc2ccc(NC(C)=O)cc2)C(=O)N[C@@H](CC(C)C)C(=O)N[C@@H](CCCCNC(C)C)C(=O)N2CCC[C@H]2C(=O)N[C@H](C)C(N)=O)cc1 [acyline] (Ac-[d2Nal][dPhe(4-Cl)][d3Pal]S[Phe(4-NH2)](Ac)[dPhe(4-NH2)](Ac)L[Lys(iPr)]P[dA]-NH2)
duration of suppression of endogenous testosterone production in men ([6]; previously shown (Herbst et al.)): 2 weeks | duration of suppression of testosterone production in normal men ([6]; single injection 300 mcg/kg SQ): ≥ 15 days | serum DHT 24 hours after acyline administration (day 1) ([7]; all subjects, Day 0 DHT 1.6±0.6, P<0.05): 0.6 ± 0.2 nmol/L | serum testosterone 24 hours after acyline administration (day one) ([7]; all subjects, acyline 300 mcg/kg SQ, day zero 20.0±7.4, P<0.0001): 2.3 ± 0.5 nmol/L | serum DHT 24-hours post acyline ([7]; testosterone enanthate group): 0.6 ± 0.2 nmol/L | serum testosterone 24-hours post acyline ([7]; testosterone enanthate group): 2.3 ± 0.8 nmol/L | serum DHT 24-hours post acyline ([7]; testosterone group): 0.5 ± 0.2 nmol/L | serum testosterone 24-hours post acyline ([7]; testosterone group): 2.3 ± 0.7 nmol/L | injection-site reaction [8]: transient pruritis

CC(C)(C)NC(=O)[C@H]1CC[C@H]2[C@@H]3CC[C@H]4NC(=O)C=C[C@]4(C)[C@H]3CC[C@]12C [finasteride, (5α,17beta)-N-(1,1-dimethylethyl)-3-oxo-4-azaandrost-1-ene-17-carboxamide]
levels of serum testosterone [9]: without substantial effect | reduction of prostate DHT levels (5-α-reductase; administration of finasteride): 90% | reduction of serum DHT levels (5-α-reductase; administration of finasteride): 70% | increase of testosterone levels (5-α-reductase; men given finasteride (Gormley et al.)): about 10%
